Laboratory results taken from PubChem BioAssay AID248 (DTP/NCI, 2004).
Where “and” joins values, the source holds several entries; their conditions need not be identical. Equal entries are not always repeated. Inconclusive results and toxic doses are left out. No stated cut-off is given here; in the data, active means T/C of 150% or more; inactive means T/C below 125%.

Test system: L1210 leukemia ip in BDF1 mice, survival T/C
Assay: NCI In Vivo Anticancer Drug Screen. Data for tumor model L1210 Leukemia (intraperitoneal) in B6D2F1 (BDF1) mice
Details: endpoint: mean survival time, higher = longer survival
In short: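 Transplantable tumor model; survival measured in treated vs vehicle control mice. Value = treated/control.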

[1] = dose: 100.0 mg/kg/injection, schedule: Q01DX009 (ip), vehicle: Klucel (hydroxypropylcellulose) (HPC)
[2] = dose: 100.0 mg/kg/injection, schedule: Q04DX003 (ip), vehicle: Klucel (hydroxypropylcellulose) (HPC)
[3] = dose: 200.0 mg/kg/injection, schedule: Q01DX009 (ip), vehicle: Klucel (hydroxypropylcellulose) (HPC)
[4] = dose: 200.0 mg/kg/injection, schedule: Q04DX003 (ip), vehicle: Klucel (hydroxypropylcellulose) (HPC)
[5] = dose: 400.0 mg/kg/injection, schedule: Q01DX009 (ip), vehicle: Klucel (hydroxypropylcellulose) (HPC)
[6] = dose: 400.0 mg/kg/injection, schedule: Q04DX003 (ip), vehicle: Klucel (hydroxypropylcellulose) (HPC)
[7] = dose: 100.0 mg/kg/injection, schedule: Q04DX003 (ip), vehicle: saline with Tween-80
[8] = dose: 200.0 mg/kg/injection, schedule: Q04DX003 (ip), vehicle: saline with Tween-80
[9] = dose: 400.0 mg/kg/injection, schedule: Q04DX003 (ip), vehicle: saline with Tween-80
[10] = dose: 25.0 mg/kg/injection, schedule: Q01DX009 (ip), vehicle: Klucel (hydroxypropylcellulose) (HPC)
[11] = dose: 50.0 mg/kg/injection, schedule: Q01DX009 (ip), vehicle: Klucel (hydroxypropylcellulose) (HPC)
[12] = dose: 100.0 mg/kg/injection, schedule: Q01DX009 (ip), vehicle: saline
[13] = dose: 200.0 mg/kg/injection, schedule: Q01DX009 (ip), vehicle: saline
[14] = dose: 100.0 mg/kg/injection, schedule: Q04DX003 (ip), vehicle: saline
[15] = dose: 200.0 mg/kg/injection, schedule: Q04DX003 (ip), vehicle: saline

Measured: T/C

Cc1ccc([N+](=O)[O-])c(OC(=O)Nc2ccccc2Cl)c1
inactive: [1] 105 % of control | [2] 100 % of control | [3] 100 % of control | [4] 97 % of control | [5] 107 % of control | [6] 100 % of control

CC1=CC(=O)C(C)(C)CC1
inactive: dose: 50.0 mg/kg/injection, schedule: Q01DX009 (ip), vehicle: saline with Tween-80 96 % of control | dose: 100.0 mg/kg/injection, schedule: Q01DX009 (ip), vehicle: saline with Tween-80 92 % of control | dose: 200.0 mg/kg/injection, schedule: Q01DX009 (ip), vehicle: saline with Tween-80 100 % of control

CN(N)C(=O)Nc1ccccc1[N+](=O)[O-]
inactive: dose: 75.0 mg/kg/injection, schedule: Q01DX001 (ip), vehicle: carboxymethylcellulose (CMC) 96 % of control | dose: 150.0 mg/kg/injection, schedule: Q01DX001 (ip), vehicle: carboxymethylcellulose (CMC) 102 % of control

NS(=O)(=O)c1ccc(Cc2[nH]c(=O)[nH]c(=O)c2Br)cc1
inactive: dose: 25.0 mg/kg/injection, schedule: Q01DX001 (ip), vehicle: saline 101 % of control | dose: 50.0 mg/kg/injection, schedule: Q01DX001 (ip), vehicle: saline 95 % of control | dose: 100.0 mg/kg/injection, schedule: Q01DX001 (ip), vehicle: saline 101 % of control

Cn1cnc2c(=O)[nH]nnc21
inactive: dose: 100.0 mg/kg/injection, schedule: Q01DX005 (ip), vehicle: saline 96 % of control | dose: 200.0 mg/kg/injection, schedule: Q01DX005 (ip), vehicle: saline 112 % of control

Nc1ncnc2c1ccn2C1CCC(CO)C1 (configuration not stated)
inactive: dose: 50.0 mg/kg/injection, schedule: Q01DX001 (ip), vehicle: other 108 % of control | dose: 100.0 mg/kg/injection, schedule: Q01DX001 (ip), vehicle: other 103 % of control | dose: 200.0 mg/kg/injection, schedule: Q01DX001 (ip), vehicle: other 101 % of control

Cc1ccc2no[n+]([O-])c2c1
inactive: dose: 20.0 mg/kg/injection, schedule: Q01DX009 (ip), vehicle: Klucel (hydroxypropylcellulose) (HPC) 111 % of control | dose: 40.0 mg/kg/injection, schedule: Q01DX009 (ip), vehicle: Klucel (hydroxypropylcellulose) (HPC) 108 % of control

COc1cc(C=C(C#N)C#N)cc(OC)c1OC
inactive: dose: 25.0 mg/kg/injection, schedule: Q04DX002 (ip), vehicle: gum acacia 100 % of control | dose: 50.0 mg/kg/injection, schedule: Q04DX002 (ip), vehicle: gum acacia 110 % of control | dose: 100.0 mg/kg/injection, schedule: Q04DX002 (ip), vehicle: gum acacia 122 % of control and 91 % of control

CC(C)(C)c1cc([N+](=O)[O-])cc([N+](=O)[O-])c1O
inactive: dose: 1.56 mg/kg/injection, schedule: Q01DX009 (ip), vehicle: saline with Tween-80 93 % of control | dose: 1.56 mg/kg/injection, schedule: Q04DX003 (ip), vehicle: saline with Tween-80 100 % of control | dose: 3.13 mg/kg/injection, schedule: Q01DX009 (ip), vehicle: saline with Tween-80 93 % of control | dose: 3.13 mg/kg/injection, schedule: Q04DX003 (ip), vehicle: saline with Tween-80 96 % of control | dose: 6.25 mg/kg/injection, schedule: Q01DX009 (ip), vehicle: saline with Tween-80 96 % of control | dose: 6.25 mg/kg/injection, schedule: Q04DX003 (ip), vehicle: saline with Tween-80 107 % of control

CCc1nc(=S)c2[nH]cnc2[nH]1
inactive: [7] 93 % of control | [8] 90 % of control | [9] 93 % of control

CCc1cnccc1C
inactive: dose: 20.0 mg/kg/injection, schedule: Q04DX003 (ip), vehicle: Klucel (hydroxypropylcellulose) (HPC) 108 % of control | [10] 102 % of control | dose: 40.0 mg/kg/injection, schedule: Q04DX003 (ip), vehicle: Klucel (hydroxypropylcellulose) (HPC) 102 % of control | [11] 107 % of control | dose: 80.0 mg/kg/injection, schedule: Q04DX003 (ip), vehicle: Klucel (hydroxypropylcellulose) (HPC) 108 % of control | [1] 111 % of control | [2] 104 % of control

C1CN(P(N2CCOCC2)N2CCOCC2)CCO1
inactive: [12] 104 % of control | [13] 98 % of control | dose: 400.0 mg/kg/injection, schedule: Q01DX009 (ip), vehicle: saline 98 % of control

CN(C)C(=O)Oc1c(Cl)cccc1Cl
inactive: [1] 92 % of control | [2] 97 % of control | [3] 97 % of control | [4] 96 % of control | [6] 89 % of control

C[C@]1(O)CC[C@H]2[C@@H]3CC[C@@H]4C[C@H](O)CC[C@]4(C)[C@@]3(F)[C@@H](O)C[C@@]21C
inactive: dose: 50.0 mg/kg/injection, schedule: Q01DX Z (sc), vehicle: steriod suspending solution 107 % of control | dose: 250.0 mg/kg/injection, schedule: Q01DX Z (sc), vehicle: steriod suspending solution 101 % of control | dose: 500.0 mg/kg/injection, schedule: Q01DX Z (sc), vehicle: steriod suspending solution 95 % of control

Cc1ccc(OC(=O)Nc2ccc(C(=O)O)c(O)c2)cc1
inactive: [12] 96 % of control | [14] 96 % of control | [13] 89 % of control | [15] 93 % of control | dose: 400.0 mg/kg/injection, schedule: Q04DX003 (ip), vehicle: saline 95 % of control

COP(N)(=S)OC
inactive: dose: 75.0 mg/kg/injection, schedule: Q01DX001 (ip), vehicle: saline 101 % of control | dose: 150.0 mg/kg/injection, schedule: Q01DX001 (ip), vehicle: saline 98 % of control | dose: 300.0 mg/kg/injection, schedule: Q01DX001 (ip), vehicle: saline 104 % of control

CC(C)C(Br)C(=O)NCC(=O)O (configuration not stated)
inactive: [7] 102 % of control | [8] 98 % of control | [9] 98 % of control

Cc1ncc(C)c(=O)[nH]1
inactive: dose: 44.0 mg/kg/injection, schedule: Q01DX Z (ip), vehicle: saline 100 % of control | dose: 67.0 mg/kg/injection, schedule: Q01DX Z (ip), vehicle: saline 105 % of control | dose: 100.0 mg/kg/injection, schedule: Q01DX Z (ip), vehicle: saline 105 % of control | [14] 93 % of control | dose: 150.0 mg/kg/injection, schedule: Q01DX Z (ip), vehicle: saline 91 % of control | [15] 96 % of control

O=[N+]([O-])c1ccc(C=Nc2cccc3ncccc23)s1
inactive: [2] 95 % of control | [4] 93 % of control

CCCC(C)C(=O)c1ccccc1 (configuration not stated)
inactive: [1] 96 % of control | [2] 103 % of control | [3] 93 % of control | [4] 110 % of control | [5] 96 % of control | [6] 108 % of control

CCNC(C)(C)C(Cl)c1ccc(Cl)s1 (configuration not stated)
inactive: [10] 90 % of control | dose: 25.0 mg/kg/injection, schedule: Q04DX003 (ip), vehicle: Klucel (hydroxypropylcellulose) (HPC) 101 % of control | [11] 89 % of control | dose: 50.0 mg/kg/injection, schedule: Q04DX003 (ip), vehicle: Klucel (hydroxypropylcellulose) (HPC) 97 % of control | [1] 90 % of control | [2] 101 % of control and 102 % of control

O=S(c1ccccc1)c1c(Cl)c(Cl)nc(Cl)c1Cl (configuration not stated)
inactive: dose: 6.25 mg/kg/injection, schedule: Q01DX009 (ip), vehicle: Klucel (hydroxypropylcellulose) (HPC) 104 % of control | dose: 12.5 mg/kg/injection, schedule: Q01DX009 (ip), vehicle: Klucel (hydroxypropylcellulose) (HPC) 106 % of control | [10] 104 % of control | [2] 105 % of control | [4] 90 % of control

OCC1OC(n2ccc3ccc(F)cc32)C(O)C1O (configuration not stated)
inactive: dose: 60.0 mg/kg/injection, schedule: Q01DX001 (ip), vehicle: saline 97 % of control | dose: 120.0 mg/kg/injection, schedule: Q01DX001 (ip), vehicle: saline 108 % of control

C=CCc1ccc(OC)c(OC)c1
inactive: dose: 100.0 mg/kg/injection, schedule: Q04DX002 (ip), vehicle: saline 97 % of control | dose: 200.0 mg/kg/injection, schedule: Q04DX002 (ip), vehicle: saline 95 % of control | dose: 400.0 mg/kg/injection, schedule: Q04DX002 (ip), vehicle: saline 104 % of control
